Data on 18 compounds can be found in ChEMBL document CHEMBL3808277, “Identification of a Potent and Selective GPR4 Antagonist as a Drug Lead for the Treatment of Myocardial Infarction” (ACS Med Chem Lett, 2016).

Assay [1] concerns the target T1, G-prodeshotein coupled receptor 4 (Homo sapiens, UniProt P46093). The assay is described as follows: Antagonist activity at N-terminal HA-tagged GPR4 (unknown origin) expressed in HEK293 cells assessed as inhibition of pH dependent cAMP response element-driven transcriptional activity at pH 7.2 incubated for 6 hrs by dual luciferase reporter gene assay. It counts as functional, cell-based. (In a reporter assay the amount or activity of a reporter protein is the signal.)
Target sequence in this assay (P46093 whole entry): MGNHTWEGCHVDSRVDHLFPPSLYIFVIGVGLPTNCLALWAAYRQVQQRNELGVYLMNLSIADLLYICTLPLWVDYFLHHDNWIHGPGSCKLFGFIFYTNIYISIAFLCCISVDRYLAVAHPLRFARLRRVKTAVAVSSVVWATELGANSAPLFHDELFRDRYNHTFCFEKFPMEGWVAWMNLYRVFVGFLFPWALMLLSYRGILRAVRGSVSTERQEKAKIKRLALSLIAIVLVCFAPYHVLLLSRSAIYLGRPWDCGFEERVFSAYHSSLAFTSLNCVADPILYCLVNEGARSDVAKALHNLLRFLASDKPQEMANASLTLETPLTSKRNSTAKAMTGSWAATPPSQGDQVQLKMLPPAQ

The target of assay [2] is T1, G-prodeshotein coupled receptor 4. Nature of the assay: Antagonist activity at N-terminal HA-tagged GPR4 (unknown origin) expressed in HEK293 cells assessed as pH dependent cAMP response element-driven transcriptional activity ratio at 10 uM at pH 7.2 incubated for 6 hrs by dual luciferase reporter gene assay relative to untreated control. It counts as functional, cell-based.
Target sequence in this assay (P46093 whole entry, looked up): as the sequence (P46093 whole entry) above

Assay [3] addresses T2, G-protein coupled receptor 68 (Homo sapiens, UniProt Q15743). Nature of the assay: Antagonist activity at N-terminal HA-tagged OGR1 (unknown origin) expressed in HEK293 cells assessed as inhibition of pH dependent nuclear factor of activated T-cell activity at >1 uM at pH 7.2 incubated for 6 hrs by dual luciferase reporter gene assay. In kind it is cell-based.
Assay [4] concerns the target T3, G-protein coupled receptor 65 (Homo sapiens, UniProt Q8IYL9). The assay is described as follows: Antagonist activity at N-terminal HA-tagged TDAG8 receptor (unknown origin) expressed in HEK293 cells assessed as inhibition of pH dependent cAMP response element-driven transcriptional activity at >1 uM at pH 7.2 incubated for 6 hrs by dual luciferase reporter gene assay. In kind it is functional, cell-based.

The target in assay [5] is T2, G-protein coupled receptor 68. Nature of the assay: Antagonist activity at N-terminal HA-tagged OGR1 (unknown origin) expressed in HEK293 cells assessed as inhibition of pH dependent nuclear factor of activated T-cell activity at pH 7.2 incubated for 6 hrs by dual luciferase reporter gene assay. In kind it is cell-based.
Assay [6] concerns Mus musculus. The assay is described as follows: Increase in survival of C57BL/6J mouse permanent left anterior descending coronary artery ligation model of myocardial infarction assessed as survival rate at 20 mg/kg/day, ip bid dosed from 1 day before to 7 day after myocardial infarction without operation day measured up to 28 days (reference value: 14.3 %). It counts as functional.

For assay [7], the system named is Mus musculus. Nature of the assay: Increase in survival of C57BL/6J mouse permanent left anterior descending coronary artery ligation model of myocardial infarction assessed as survival rate at 6.7 mg/kg/day, ip bid dosed from 1 day before to 7 day after myocardial infarction without operation day measured up to 28 days (reference value: 14.3 %). In kind it is functional.

The target of assay [8] is T3, G-protein coupled receptor 65. The assay is described as follows: Antagonist activity at N-terminal HA-tagged TDAG8 receptor (unknown origin) expressed in HEK293 cells assessed as inhibition of pH dependent cAMP response element-driven transcriptional activity at pH 7.2 incubated for 6 hrs by dual luciferase reporter gene assay. In kind it is functional, cell-based.

Structures are written as SMILES. Activity calls are given as the source filed them. No cut-off for these calls is given here.

T3 sequence (Q8IYL9 whole entry): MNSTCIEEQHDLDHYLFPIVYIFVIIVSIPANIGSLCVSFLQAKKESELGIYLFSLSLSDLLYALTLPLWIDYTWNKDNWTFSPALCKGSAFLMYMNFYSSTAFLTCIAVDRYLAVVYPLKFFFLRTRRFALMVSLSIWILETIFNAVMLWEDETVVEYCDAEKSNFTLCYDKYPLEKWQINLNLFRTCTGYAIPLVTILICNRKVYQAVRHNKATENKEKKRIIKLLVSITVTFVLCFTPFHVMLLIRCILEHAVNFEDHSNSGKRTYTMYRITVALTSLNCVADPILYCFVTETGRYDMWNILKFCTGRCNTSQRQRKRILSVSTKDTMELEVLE
T2 sequence (Q15743 whole entry): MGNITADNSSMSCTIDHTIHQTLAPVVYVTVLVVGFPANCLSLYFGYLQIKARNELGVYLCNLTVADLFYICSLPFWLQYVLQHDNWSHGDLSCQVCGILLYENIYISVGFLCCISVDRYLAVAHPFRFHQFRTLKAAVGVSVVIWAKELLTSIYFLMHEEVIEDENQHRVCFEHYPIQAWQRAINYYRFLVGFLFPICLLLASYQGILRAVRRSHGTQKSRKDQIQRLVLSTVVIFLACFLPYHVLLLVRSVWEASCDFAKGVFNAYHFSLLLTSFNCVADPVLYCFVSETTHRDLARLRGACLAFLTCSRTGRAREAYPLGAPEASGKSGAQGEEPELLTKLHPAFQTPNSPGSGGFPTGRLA

`CCc1nc2ccccc2n1Cc1ccc2c(c1)CCc1ccccc1N2`: the IC50 in assay [1] was more than 10000 nM. For the same compound, the Ratio in assay [2] was determined as 0.44.

Take `CCc1nc2c(C)cc(C)nc2n1Cc1ccc2c(c1)CCc1cc(CN3CCCC3)ccc1N2`: the Ratio in assay [2] came to 0.4.

`c1ccc2c(c1)CCc1cc(Cn3cnc4ccccc43)ccc1N2`: in assay [1], the IC50 was more than 10000 nM. The Ratio in assay [2] stood at 0.52.

On to `CCc1nc2c(C)cc(C)nc2n1Cc1ccc2c(c1)Sc1ccccc1N2`, for which the IC50 in assay [1] worked out at 910 nM. Also, the Ratio in assay [2] is 0.38.

Consider `CCc1nc2c(C)cc(C)nc2n1Cc1ccc2c(c1)CCc1cc(CN3CCOCC3)ccc1N2`, for which the Ratio in assay [2] was 0.41.

Regarding `c1ccc2c(c1)CCc1cc(Cn3ccnc3)ccc1N2`, the Ratio in assay [2] worked out at 1.11.

As to `CCc1nc2c(C)cc(C)nc2n1Cc1ccc2c(c1)C=Cc1ccccc1N2`, in assay [2], the Ratio came to 0.36.

As to `c1ccc2c(c1)CCc1cc(Cn3ccc4ccccc43)ccc1N2`, the Ratio in assay [2] turned out to be 0.44.

Take `CCc1nc2c(C)cc(C)nc2n1Cc1ccccc1`: the Ratio in assay [2] amounted to 0.72.

With `Cc1nc2ccccc2n1Cc1ccc2c(c1)CCc1ccccc1N2`, the Ratio in assay [2] was 0.57.

As for `CCc1nc2c(C)cc(C)nc2n1Cc1ccc(Nc2ccccc2)cc1`, the concentration for half-maximal inhibition (IC50) in assay [1] is more than 10000 nM. Besides, the Ratio in assay [2] was 0.54.

For the compound `Cc1nccn1Cc1ccc2c(c1)CCc1ccccc1N2`, in assay [2], the Ratio was found to be 1.24.

Consider `CCc1nc2c(C)cc(C)nc2n1Cc1ccc2ccccc2c1`, for which the Ratio in assay [2] amounted to 0.52.

For `CCc1nccn1Cc1ccc2c(c1)CCc1ccccc1N2`, the Ratio in assay [2] is 1.22.

As for `c1ccc2c(c1)CCc1cc(Cn3c4ccccc4c4ccccc43)ccc1N2`, the Ratio in assay [2] is 1.03.

For `CCc1nc2c(C)cc(C)nc2n1Cc1ccc2c(c1)CCc1cc(CN3CCN(C)CC3)ccc1N2`, the IC50 in assay [1] was 130 nM. Moreover, the inhibition entry in assay [3] and in assay [4] was “Active” in each case. Moreover, in assay [2], the Ratio stood at 0.42.

As for `CCc1nc2c(C)cc(C)nc2n1Cc1ccc2c(c1)CCc1cc(CN3CCCCC3)ccc1N2`, the IC50 was more than 10000 nM in assay [5], 67 nM in assay [1] and more than 10000 nM in assay [8]. The survival at 20 mg/kg/day with Mus musculus [6] was determined as 62.5%. The survival at 6.7 mg/kg/day with Mus musculus [7] worked out at 100%. In assay [2], the Ratio stood at 0.39.

For the compound `CCc1nc2c(C)cc(C)nc2n1Cc1ccc2c(c1)CCc1ccccc1N2`, the IC50 in assay [1] is 900 nM. The Ratio in assay [2] came out at 0.22.

A word on the IC50: it is the concentration that inhibits the measured activity by half.
